Laboratory results as given in US7977364B2, “Indazoles, benzisoxazoles and benzisothiazoles and their use as estrogenic agents” (Laboratoire Thermamex, priority 2004, dated 2011).
Read-outs that look alike come from different tables or passages of the source.

Key:
[1] = system: rats; assay: Forced swimming test (antidepressant activity, immobility duration); format: in vivo, rat
Description: Antidepressant effect of estradiol was recently reported in studies using ER β KO mice model. In addition, ER β localization in dorsal raphe nucleus area in rat has been described. The gold standard test for antidepressant potency of compound consist in the forced swimming test, in this experiment antidepressants could be distinguished from psychostimulants which decreased immobility at doses which increased general activity. In order to investigate the putative antidepressant potency of the compounds reported here, the forced swimming test was performed according to the following design. The animals were housed six per cage under standard colony conditions, with a 12 h light/dark cycle and ad libitum food and water. They were allowed to acclimatize to the colony for at least 7 days prior to any experimentation. For subcutaneous administration, the compound of Example 23 was dissolved in olive oil and diluted to the desired concentration on the day of administration. For positive control, intraperitoneal (i.p.) injection of desipramine was done. Desipramine was dissolved in double-distilled water (10 mg/kg). The experiments were conducted 30 min after the positive control drug treatment (only for desipramine treatment). Other compounds, ie: estradiol and the compound of Example 23 were daily injected subcutaneously in rats, during a 7 days period. Acquisition were performed on day 8 (24 h after the last administration of items) and day 9 (48 h after estradiol or compound 23 administration), respectively. Data acquired 24 hours after the last administration consisted in the “naïve animal group”, these animals had never been previously tested in the device. Data acquired 48 hours after a last administration of compounds consisted in “trained animal group”.
On the 8th, the forced swim test was performed. This study was carried out in rats according to the methods described by Porsolt (Eur. J. Pharm., 1978). Briefly, rats were placed individually in glass cylinders (height: 40 cm, diameter: 18 cm) containing 25 cm of water at 25° C. Ten minutes later, rats were removed and dried before being returned to their home cages. The animals were replaced in the cylinders 24 h later, and the procedure was repeated, and a 10-min observation period was recorded.

[2] = system: human endometrial adenocarcinoma Ishikawa cells; assay: Estrogenic and anti-estrogenic activities in vitro: induction of alkaline phosphatase (APase) activity; format: cell-based; conditions: Homo sapiens, Ishikawa, 96 h; compound alone, four days; ND = not detected; read-out: Estrogenic activity EC50 (nM) ± S.E.M
Protocol: The estrogenic and anti-estrogenic potentials of new compounds were evaluated using the induction of alkaline phosphatase (APase) activity, an estrogen specific response in human endometrial adenocarcinoma Ishikawa cells (Botella J., J Steroid Biochem Molec Biol, 1995, 55: 77-84; Littlefield et al., Endocrinology, 1990, 127: 2757-2762).
Ishikawa cells were routinely grown as monolayers in Dulbecco's Modified Eagle's medium (DMEM) containing 4 mM Glutamax I and supplemented with 10% of decomplemented fetal calf serum (dFCS) and antibiotics. They were maintained in a humidified atmosphere of 5% CO2 and 95% air, at 37±0.1° C. Stocks were performed once a week to maintain continuous exponential growth.
For studies, Ishikawa cells were plated into 96-well microplates. The next day, the medium was changed to a phenol red-free DMEM containing 5% dFCS stripped of endogenous estrogens by dextran coated charcoal treatment.
At the end of the incubation period, APase activity was assayed by a method involving the hydrolysis of p-nitrophenyl phosphate to p-nitrophenol at pH 9.8 and spectrophotometric determination of the product at 405 nm.
In brief, the microplates were first rinsed twice with cold phosphate buffered solution and then placed at −80° C. for at least 15 minutes. After thawing at room temperature for 5-10 minutes, the plates were put on ice and 50 μl ice-cold solution containing 5 mM p-nitrophenyl phosphate was added to each well. The plates were warmed to room temperature to allow for the development of the enzymatic reaction (t0). After a 15 to 60 minute incubation period, the intensity of the yellow color generated by the production of p-nitrophenol was measured into each well at 405 nm using a microplate reader (Wallac, model 1420 Victor^2). […] Sigmoidal dose-response curves were plotted and EC50 (estrogenic effect) and IC50 (anti-estrogenic effect) values were calculated for each compound.

[3] = system: human breast cancer cell line MCF-7; assay: Proliferative activity in vitro (ATP luminescence, 6 days); format: cell-based; conditions: Homo sapiens, MCF7, 144 h
Protocol: The proliferative effect of the compounds of the invention was evaluated on human breast cancer cell line MCF-7 by measuring the number of viable cells after 6 days of treatment.
MCF-7 cells were routinely cultured as monolayers in Dulbecco's modified Eagle's medium (DMEM) containing 4 mM Glutamax and 4.5 g/l glucose and supplemented with 5% (v/v) decomplemented fetal calf serum (dFCS) and antibiotics.
Cells were plated at 2.10^6 cells/75 cm^2 flasks and incubated at 37° C. in a humidified atmosphere containing 5% CO2. They were passaged once weekly to maintain continuous exponential growth. Forty eight hours before the start of an experiment, near-confluent cells were changed to a phenol red free DMEM containing 5% steroid-stripped dFCS by dextran coated charcoal treatment (DCC-DMEM). On the day of the experiment, cells were harvested by brief exposure to trypsin and plated in DCC-DMEM in 96-well microplates at a density of 4.10^3 cells/well. The next day, the medium was renewed and test compounds, diluted appropriately in estrogen-free DMEM, were added and incubated for six days. […] At the end of the incubation period, cell proliferation was evaluated by quantitation of the cellular ATP content which signals the presence of metabolically active cells.
The assay, based on the ATP-dependent luciferase reaction, enables generation of a luminescent signal proportional to the amount of ATP present. As there is a linear relationship between the amount of ATP and the number of viable cells present in culture, the luminescent signal allowed to precisely evaluate cell proliferation (Crouch, S. P. M. et al. J. Immunol. Meth., 1993, 160, 81; Kangas, L. et al. Med. Biol. 1984, 62, 338; Petty, R. D. et al. J. Biolum. Chemilum. 1995, 10, 29).
In brief, the microplates were inverted to discard the culture medium and 100 μl of fresh medium was added into each well. The microplates were equilibrated at room temperature for approximately 30 minutes. 100 μl of luciferase reagent was added into each well and contents were mixed for 2 minutes to induce cell lysis. The plates were incubated at room temperature for 10 minutes to stabilize luminescence signal.
Luminescence was recorded using a microplate reader (Wallac, model 1420 Victor^2) and results were expressed as percentage of the control luminescence. Sigmoidal dose-response curves were plotted and EC50 values were calculated for each compound in order to evaluate their proliferative potency.

[4] = system: Prepubescent female rats; assay: Estrogenic / uterotrophic activity in vivo (uterus wet weight); set-up: species or system rat; conditions: Rattus norvegicus, po, 72 h, orally 3 mg/rat/day for 3 days, read-out: % stimulation vs vehicle (uterus weight)
Protocol: Prepubescent female rats were orally treated at 3 mg/rat/day for 3 days. On the day following the last treatment, uteri were removed and wet weights were recorded.
The results are expressed as % of stimulation of uterus weight in comparison with vehicles. […]
Prepubescent female rats were orally treated with 0.3; 1; 3 or 10 mg/rat/day for 3 days. On the day following the last treatment, uteri were removed and wet weights were recorded.

[5] = system: ovariectomized rats; assay: Hot flush model in vivo: tail skin temperature, uteri and body weight; conditions: 3 mg/rat/day

EC50 [2] [nM]	EC50 ([3]; read-out: Cell proliferation EC50 (nM) ± S.E.M) [nM]	Compound	immobility duration, Trained animals ([1]; dosage 30 (mg/rat/day) as in table, i.p., 30 min before test, 10 minutes test) [s]	activity at 1 µM ([3]; MCF-7, 10^−6 M, six days, read-out: Effect at 10^−6 M (% of control)) [%]	activity at 0.01 µM ([3]; MCF-7, 10^−8 M, six days, read-out: Effect at 10^−8 M (% of control)) [%]	change in vivo at 3 mg ([4]; Table 4) [%]	change in vivo at 3 mg ([4]; Table 5) [%]	immobility duration, Naïve animals ([1]; 0.007 mg/rat/day s.c. 7 days, 24 h after last administration, 10 minutes test) [s]	immobility duration, Trained animals ([1]; 0.007 mg/rat/day s.c. 7 days, 48 h after last administration, 10 minutes test) [s]	antidepressor potency ([1]; 24 h and 48 h after administration, in words)	TST Variation day 1 vs day 0 [5] [C. °]	TST Variation day 4 vs day 0 [5] [C. °]	TST Variation day 7 vs day 0 [5] [C. °]	Body weights (% increase vs vehicle) ([5]; after one week treatment) [%]	Uteri weight (% increase vs vehicle) ([5]; after one week treatment) [%]
–	–	CNCCCN1c2ccccc2CCc2ccccc21 [desipramine, reference compound]	2.6 ± 1.5	–	–	–	–	–	–	–	–	–	–	–	–
0.1 ± 0.05	0.01	C[C@]12CC[C@@H]3c4ccc(O)cc4CC[C@H]3[C@@H]1CC[C@@H]2O [Example E2, 17β-estradiol, reference compound]	–	205	212	526	333	22.5 ± 7.1	79.2 ± 23.0	confirmation of the antidepressor potency	−4.8	−3.5	−5.6	−10	273
